Measured values reported in patent US11395867B2, “Degradable removable implant for the sustained release of an active compound” (Janssen Sciences Ireland Unlimited Company, priority 2009, dated 2022).
Where “and” joins values, the source holds several entries; their conditions need not be identical. Equal entries are not always repeated.

Tests used:
[1] = In vivo testing of electrostatically spun tube containing two sets of microparticles, plasma concentrations; design: species or system Sprague-Dawley rats; conditions: rat, subcutaneous electrospun tube implant, TMC278 139 mg/kg, compound 1 64 mg/kg, individual animals 1-4
Experimental: Tubes were electrostatically spun from a 100 mg/ml polydioxanone (IVHFIP=1.99 dl/g) hexafluoroisopropanol solution. A 4 mm mandrel was used to provide a consistent inner diameter of 4 mm. The rotational speed of the mandrel was 400 rpm, the charging voltage range was 20/−10 kV, and the pump flow rate was 10 ml/hour. The resulting wall thickness was 500 microns. Fiber diameters were 1-2 microns and the average pore size formed from the network of fibers was 20 microns as determined by Scanning Electron Microscopy.
The microparticles were prepared by the spinning disc method using a polymer/acetone solution with a concentration ranging from 3-4% (w/w). Two sets of microparticles were prepared. The target composition of one set was 70% (w/w) TMC278 and 30% (w/w) PLGA 50/50 (Lakeshore Biomaterials IVHFIP=0.79 dl/g). The target composition of the other set of microparticles was 70% (w/w) of compound 1 (=compound 14 of WO01/25240) and 30% (w/w) PLGA 50/50 (Lakeshore Biomaterials IVHFIP=0.18 dl/g). This compound 1 has the following structure and will be referred to hereinafter as compound 1:
Approximately 133 mg of the microparticle mixture was introduced into the electrostatically prepared tubes using a spatula.
(§1) The prepared tubes were implanted into the subcutaneous space on the back of four male Sprague-Dawley rats weighing between 250-350 grams. The dose of TMC278 was 139 mg/kg and the dose of compound 1 was 64 mg/kg. The tail vein was sampled at pre-determined time points. Blood samples were immediately centrifuged to extract the plasma, plasma was analyzed for compound 1 and TMC278 by LC/MS/MS. The lower limit of quantitation was 0.4 ng/ml and 2 ng/ml for TMC278 and compound 1, respectively.

[2] = In vivo testing of laser drilled melt extruded tube containing two sets of microparticles, plasma concentrations; conditions: rat, subcutaneous laser drilled extruded tube implant, TMC278 139 mg/kg, compound 1 64 mg/kg, individual animals 1-4
Experimental: Tubes with inner diameter of 4.5 mm were extruded from polydioxanone (IVHFIP=1.99 dl/g) using a ¾ inch single screw extruder fitted with a tube die. The dimensions of the tube were monitored using an in-line laser diameter measuring system and maintained using a puller. Following the extrusion the tubes were laser drilled. In preparation for the laser drilling a mask design was prepared that located the holes 260 microns apart from one another. Scanning electron microscopy was used to size the inner and outer diameter of the holes. […] The microparticles were prepared as described in Example 9. Approximately 133 mg of the microparticle mixture was introduced into the tubes.
as §1, with “plasma, and” for “plasma,”, “quantitation for TMC278 and compound 1” for “quantitation”, “2.0 ng/ml,” for “2 ng/ml for TMC278 and compound 1,”

[3] = In vivo testing of laser drilled melt extruded tube containing two sets of microparticles formulated with F108, plasma concentrations; design: species or system Sprague-Dawley rats; conditions: rat, subcutaneous laser drilled extruded tube implant, TMC278 109 mg/kg, compound 1 78 mg/kg, individual animals 1-4
Experimental: The laser drilled melt extruded tube was prepared as described above in example 10. The microparticles were prepared by the spinning disc method using a 3% (w/w) polymer/acetone solution. Two sets of microparticles were prepared. The target composition of one set was 70% (w/w) TMC278, 20% (w/w) PLGA 50/50 (Lakeshore Biomaterials IVHFIP=0.79 dl/g), and 10% (w/w) F108 (BASF). The target composition of the other set of microparticles was 70% (w/w) compound 1, 20% (w/w) PLGA 50/50 (Lakeshore Biomaterials IVHFIP=0.18 dl/g), and 10% (w/w) F108. The F108 was added to the polymer solution.
The size range of the microparticles was determined by randomly selecting a sample of microparticles and placing them on the stage of an optical microscope and using a ruler to measure the various sizes of the microparticles in the randomly selected sample. The size range of the TMC278 and compound 1 microparticles was 10-100 microns and 20-100 microns, respectively. Microparticles were mixed as described in example 9. Approximately 133 mg of the microparticle mixture was introduced into tubes using a spatula to transfer the contents.
as §1, with “TMC278” for “TMC278 was 139 mg/kg”, “and” for “and the dose of”, “109 mg/kg and 78 mg/kg, respectively.” for “64 mg/kg.”, “quantitation for TMC278 and compound 1” for “quantitation”, “ng/ml,” for “ng/ml for TMC278 and compound 1,”

CC(C)CN(C[C@@H](O)[C@H](Cc1ccccc1)NC(=O)O[C@H]1CO[C@H]2OCC[C@H]21)S(=O)(=O)c1ccc2c(c1)OCO2 [compound 1]
plasma concentration ([1]; 3 hour): 2.37 ng/mL and 4.08 ng/mL and 4.46 ng/mL | plasma concentration ([1]; 1 day): 12.6 ng/mL and 9.95 ng/mL and 10.5 ng/mL | plasma concentration ([1]; 3 day): 15.1 ng/mL and 14.2 ng/mL and 15.9 ng/mL | plasma concentration ([1]; 7 day): 13.6 ng/mL and 13.2 ng/mL and 13.0 ng/mL | plasma concentration ([1]; 14 day): 7.17 ng/mL and 12.7 ng/mL and 16.6 ng/mL and 9.89 ng/mL | plasma concentration ([1]; 28 day): 6.07 ng/mL and 8.86 ng/mL and 12.4 ng/mL and 10.5 ng/mL | plasma concentration ([1]; 35 day): 5.75 ng/mL and 12.0 ng/mL and 20.0 ng/mL and 11.6 ng/mL | concentration at 3 h ([1]; male, Sprague-Dawley, plasma, subcutaneous, 3 hour): 3.93 ng/mL | concentration at 1 day ([1]; male, Sprague-Dawley, plasma, subcutaneous, 1 day): 6.39 ng/mL | concentration at 3 day ([1]; male, Sprague-Dawley, plasma, subcutaneous, 3 day): 10 ng/mL | concentration at 7 day ([1]; male, Sprague-Dawley, plasma, subcutaneous, 7 day): 9.95 ng/mL | plasma concentration ([2]; 3 hour): 2.88 ng/mL and 16.4 ng/mL and 27.0 ng/mL and 16.5 ng/mL | plasma concentration ([2]; 1 day): <2 ng/mL and 4.20 ng/mL and 9.25 ng/mL and 3.71 ng/mL | plasma concentration ([2]; 3 day): <2 ng/ml (2×) and 3.35 ng/ml and 6.06 ng/ml | plasma concentration ([2]; 7 day): 3.44 ng/mL and 3.13 ng/mL and <2 ng/mL | plasma concentration ([2]; 14 day): 2.70 ng/mL and 2.26 ng/mL and 3.66 ng/mL | plasma concentration ([2]; 28 day): <2 ng/mL and 4.32 ng/mL and 13.0 ng/mL and 4.30 ng/mL | plasma concentration ([2]; 35 day): <2 ng/mL and 3.56 ng/mL and 13.0 ng/mL and 2.57 ng/mL | concentration at 7 day ([2]; male, in vivo, 7 day): < 2 ng/mL | concentration at 14 day ([2]; male, in vivo, 14 day): < 2 ng/mL | plasma concentration ([3]; 3 hour): 59.1 ng/mL and 26.9 ng/mL and 39.2 ng/mL and 17.3 ng/mL | plasma concentration ([3]; 1 day): 6.13 ng/mL and 2.54 ng/mL and 4.36 ng/mL and 2.98 ng/mL | plasma concentration ([3]; 3 day): <2 ng/mL | plasma concentration ([3]; 7 day): 2.89 ng/ml and <2 ng/ml (2×) | plasma concentration ([3]; 14 day): 8.25 ng/ml and <2 ng/ml (2×) and 6.27 ng/ml | plasma concentration ([3]; 28 day): 22.1 ng/mL and 6.03 ng/mL and 12.3 ng/mL and 16.3 ng/mL | plasma concentration ([3]; 35 day): 13.1 ng/mL and 7.25 ng/mL and 10.7 ng/mL and 15.4 ng/mL | concentration at 3 day ([3]; male, Sprague-Dawley, plasma, 3 day): 3.36 ng/mL | concentration at 7 day ([3]; male, Sprague-Dawley, plasma, 7 day): < 2 ng/mL
